From patent publication US11952348B1, “4,5-bis(4-bromophenyl)-1-hexyl-2-(4-hydroxy-3-dimethoxyphenyl)-1H-imidazole as an antimicrobial compound” (KING FAISAL UNIVERSITY, priority 2023, dated 2024)

Legend:
Assay type in all cases: cell-based
Details in all cases: after 10, 20, 40 and 60 minutes at all dilutions 1:100, 1:200, 1:400, 1:800
[1] = tested on: Staphylococcus aureus; assay: Antimicrobial screening by agar dilution, Staphylococcus aureus
Description: (§1) The antimicrobial properties of the 4,5-bis(4-bromophenyl)-1-hexyl-2-(4-hydroxy-3-dimethoxyphenyl)-1H-imidazole was studied by the method of agar dilution. Test solutions of each compound was prepared in concentration of 1% using dimethylformamide as a solvent then they were diluted in physiological solution to obtain the final experimental dilutions 1: 100, 1:200, 1:400, 1:800. The effect of these substances were compared with furacillin in a controlled study. The testing microbes used were gram positive bacteria Staphylococcus aureus, gram negative bacteria Pseudomonas aeruginosa and Escherichia coli and Candida albicans fungi were taken. The experiments used for this survey were meat-pentonlu agar (EPA) for cultivation of bacteria and Saburo environment for fungi. Each experiment used 1 ml of test solution on each plate 500 min. Add 2 drops of emulsified with microbes feel. All experimental samples were taken from the agar after 10, 20, 40, 60 minutes in the environment on the basis of Patrk planted. Bacteria were cultivated at a temperature of 37° C. for 1 day and the mushroom was kept in a thermostat for […] at a temperature of 28° C. Then results were checked.

[2] = tested on: Escherichia coli; assay: Antimicrobial screening by agar dilution, Escherichia coli
Description: as §1

[3] = tested on: Pseudomonas aeruginosa; assay: Antimicrobial screening by agar dilution, Pseudomonas aeruginosa
Description: as §1

[4] = tested on: Candida albicans; assay: Antimicrobial (antifungal) screening by agar dilution, Candida albicans
Description: as §1

Measured: inhibition activity (summary in words)

CCCCCCn1c(-c2ccc(O)c(OC)c2)nc(-c2ccc(Br)cc2)c1-c1ccc(Br)cc1 [4,5-bis(4-bromophenyl)-1-hexyl-2-(4-hydroxy-3-dimethoxyphenyl)-1H-imidazole]
highest inhibition activity: all assays above
